Reference: paper PMC9917443 (eLife, 2023)

Tests used:
[1] = molecular target: T1, GB1a/2 receptors (Homo sapiens, UniProt O75899+Q9UBS5); assay: inter-subunit FRET conformational sensor (HA-GB1a-ACP / Flag-SNAP-GB2) in HEK293T cells; conditions: for Fig. 2c value, 10mM GABA / Fig. 2c value, Basal: + Vehicle Basal given as 100; for Fig. 2c value, Basal: Basal (no GABA)
[2] = molecular target: T1, GB1a/2 receptors; assay: Ca^2+ mobilization assay (Calcium 6) in HEK293T cells expressing GB1a/2; type: cell-based; set-up: Flag (N); expressed in transfected cells; host or cells: HEK293T cells stably expressing chimeric Gαqi; conditions: 1 or 10 μM
[3] = test system: GB1a/2 receptor-induced Kir3 currents in HEK293T cells; assay: Kir3 K^+ currents in transfected HEK293T cells (patch-clamp); type: cell-based
[4] = molecular target: T1, GB1a/2 receptors; assay: PKA luminescence assay (R-RLuc-N / C-RLuc-C) of Gαi signaling in HEK293T cells
[5] = test system: GBR-activated K^+ currents in cultured hippocampal neurons; assay: K^+ currents in cultured hippocampal neurons (patch-clamp); type: cell-based, mouse; conditions: for K^+ currents evoked by compound alone (in words): 5 µM, -70 mV
Description: APP17 signaling through native GBRs may depend on protein-protein interactions that are not preserved in the membrane preparations used for the [^35S]GTPγS binding assay. Therefore, we tested whether APP17 influences GBR-mediated Gβγ signaling to K^+ channels in cultured hippocampal neurons using patch-clamp electrophysiology, which preserves the native environment of receptors ([Schuler et al., 2001]; [Vigot et al., 2006]). […] . Neuronal cultures and HEK293T cells were prepared as described ([Dinamarca et al., 2019]). Coverslips with hippocampal neurons (DIV 12–15) or HEK293T cells were transferred to a chamber containing a low-K^+ bath solution (in mM): 145 NaCl, 4 KCl, 5 HEPES, 5.5 D-glucose, 1 MgCl2, and 1.8 CaCl2 (pH 7.4 adjusted with NaOH). Recordings were performed at room temperature using borosilicate pipettes of 3–5 MΩ resistance tips, filled with K-gluconate-based pipette solution (in mM): 150 K-gluconate, 1.1 EGTA, 10 HEPES, 10 Tris-phosphocreatine, 0.3 NaGTP, and 4 MgATP (pH 7.2 adjusted with KOH). Upon achieving whole-cell access, cells were held in voltage-clamp mode at −70 mV (with no correction for liquid junction potential) and baclofen-induced K^+ currents were induced in a high-K^+ bath solution (in mM): 120 NaCl, 25 KCl, 5 HEPES, 5.5 D-glucose, 1 MgCl2, and 1.8 CaCl2 (pH 7.4 adjusted with NaOH). […] Schaffer collaterals were stimulated at 0.1 Hz with brief current pulses via bipolar Pt/Ir wires. Evoked EPSCs were recorded at –60 mV with a Cs^+-based intracellular solution. Baclofen and peptides were bath applied in standard ACSF at room temperature. We recorded mEPSCs in primary neuronal cultures established from embryonic (E15–17) murine hippocampus at DIV13–16 in the presence of 0.5 μM TTX at room temperature ([Dinamarca et al., 2019]). APP17 (250 nM) and (R)-baclofen (30 μM) were applied via superfusion. Template matching with pClamp 10 software (Molecular Devices) was used to detect individual mEPSCs.

[6] = test system: GB1a/2 receptors in HEK293T cells; assay: APP17-TMR binding / displacement at GB1a/2 receptors in HEK293T cells; conditions: 10 μM peptide
Description: Transfected HEK293T cells expressing Flag-GB1a and Flag-GB2 were seeded into 96-well microplates (Greiner Bio-One, Kremsmünster, Austria) at 50,000 cells/well. After 18 hr, peptides were mixed with conditioned medium at the following final concentrations: APP17-TMR (1 µM) with either APP17 (10 µM), sc-APP17 (10 µM), or PBS (vehicle); sc-APP17-TMR (1 µM) in PBS was used as a negative control. After removal of medium, peptide mixes were added to the wells and cells incubated in the dark for 1 hr at room temperature. After removal of the peptides, PBS with MgCl2 and CaCl2 (Sigma-Aldrich) was added to the wells. TMR fluorescence was monitored with a Spark microplate reader (Tecan Group, Männerdorf, Switzerland) using a monochromator (Excitation 544 nm, […] bandwidth; detection […], 25 nm bandwidth). TMR fluorescence was determined after subtraction of the sc-APP17-TMR fluorescence measured at HEK293T cells transfected with pCI plasmid.

[7] = test system: spontaneous neuronal activity in the auditory cortex; assay: two-photon Ca^2+ imaging of auditory cortex in anesthetized mice; conditions: 5 µM perfused over cortex; peptides 60 min, baclofen 15 min
[8] = test system: mEPSCs in brain slices / cultured hippocampal neurons; conditions: cultured hippocampal neurons APP17 250 nM, ref Rice et al., 2019; cited from earlier work
Source text: GBRs are composed of a GB1a or GB1b subunit with a GB2 subunit, which generates heterodimeric GB1a/2 and GB1b/2 receptors ([Pin and Bettler, 2016]). GB1a differs from GB1b by the presence of two N-terminal sushi domains (SD1/2). GB1a/2 and GB1b/2 receptors predominantly localize to pre- and postsynaptic sites, respectively ([Vigot et al., 2006]). APP and sAPP bind to SD1 of GB1a ([Schwenk et al., 2016]; [Dinamarca et al., 2019]; [Rice et al., 2019]). Synthetic APP peptides of 9 or 17 amino acid residues, termed APP9 and APP17, are sufficient for binding and inducing a stable conformation in SD ... || GB1a/2 receptors are abundant at axon terminals where they inhibit neurotransmitter release ([Vigot et al., 2006]). […] A GBR antagonist blocked the effect of APP17 on the mEPSC frequency, supporting a GBR-dependent mechanism.

[9] = test system: native GBRs in mouse brain membranes; assay: [^35S]GTPγS binding in brain membrane preparations
[10] = test system: mEPSCs of cultured hippocampal neurons; assay: mEPSC frequency in cultured hippocampal neurons; type: cell-based, mouse; conditions: baclofen 30 µM, after APP17, 0.5 μM TTX
Description: (§1) GB1a/2 receptors are abundant at axon terminals where they inhibit neurotransmitter release ([Vigot et al., 2006]). […] A GBR antagonist blocked the effect of APP17 on the mEPSC frequency, supporting a GBR-dependent mechanism. […] We additionally studied whether APP17 at 250 nM influences eEPSC amplitudes in acute hippocampal slices. Postsynaptic GBR-activated K^+ currents were blocked with a Cs^+-based intracellular solution, which allowed to specifically monitor the activity of presynaptic GBRs.
(§2) Neuronal cultures and HEK293T cells were prepared as described ([Dinamarca et al., 2019]). Coverslips with hippocampal neurons (DIV 12–15) or HEK293T cells were transferred to a chamber containing a low-K^+ bath solution (in mM): 145 NaCl, 4 KCl, 5 HEPES, 5.5 D-glucose, 1 MgCl2, and 1.8 CaCl2 (pH 7.4 adjusted with NaOH). Recordings were performed at room temperature using borosilicate pipettes of 3–5 MΩ resistance tips, filled with K-gluconate-based pipette solution (in mM): 150 K-gluconate, 1.1 EGTA, 10 HEPES, 10 Tris-phosphocreatine, 0.3 NaGTP, and 4 MgATP (pH 7.2 adjusted with KOH). […] Evoked EPSCs were recorded at –60 mV with a Cs^+-based intracellular solution. […] We recorded mEPSCs in primary neuronal cultures established from embryonic (E15–17) murine hippocampus at DIV13–16 in the presence of 0.5 μM TTX at room temperature ([Dinamarca et al., 2019]). […]

[11] = test system: eEPSCs of CA1 pyramidal neurons; assay: eEPSC amplitudes in CA1 pyramidal neurons of acute hippocampal slices; set-up: species or system mouse; conditions: APP17 250 nM or baclofen 20 µM, Cs^+-based intracellular solution
Description: as §1, §2

[12] = 1 μM APP17, best-fit, different curve for each data set
[13] = Global (shared) fit, Vehicle and 1 μM APP17, one curve for all data sets
[14] = Vehicle, best-fit, different curve for each data set

T1 sequence (Q9UBS5 15-961 limits assumed): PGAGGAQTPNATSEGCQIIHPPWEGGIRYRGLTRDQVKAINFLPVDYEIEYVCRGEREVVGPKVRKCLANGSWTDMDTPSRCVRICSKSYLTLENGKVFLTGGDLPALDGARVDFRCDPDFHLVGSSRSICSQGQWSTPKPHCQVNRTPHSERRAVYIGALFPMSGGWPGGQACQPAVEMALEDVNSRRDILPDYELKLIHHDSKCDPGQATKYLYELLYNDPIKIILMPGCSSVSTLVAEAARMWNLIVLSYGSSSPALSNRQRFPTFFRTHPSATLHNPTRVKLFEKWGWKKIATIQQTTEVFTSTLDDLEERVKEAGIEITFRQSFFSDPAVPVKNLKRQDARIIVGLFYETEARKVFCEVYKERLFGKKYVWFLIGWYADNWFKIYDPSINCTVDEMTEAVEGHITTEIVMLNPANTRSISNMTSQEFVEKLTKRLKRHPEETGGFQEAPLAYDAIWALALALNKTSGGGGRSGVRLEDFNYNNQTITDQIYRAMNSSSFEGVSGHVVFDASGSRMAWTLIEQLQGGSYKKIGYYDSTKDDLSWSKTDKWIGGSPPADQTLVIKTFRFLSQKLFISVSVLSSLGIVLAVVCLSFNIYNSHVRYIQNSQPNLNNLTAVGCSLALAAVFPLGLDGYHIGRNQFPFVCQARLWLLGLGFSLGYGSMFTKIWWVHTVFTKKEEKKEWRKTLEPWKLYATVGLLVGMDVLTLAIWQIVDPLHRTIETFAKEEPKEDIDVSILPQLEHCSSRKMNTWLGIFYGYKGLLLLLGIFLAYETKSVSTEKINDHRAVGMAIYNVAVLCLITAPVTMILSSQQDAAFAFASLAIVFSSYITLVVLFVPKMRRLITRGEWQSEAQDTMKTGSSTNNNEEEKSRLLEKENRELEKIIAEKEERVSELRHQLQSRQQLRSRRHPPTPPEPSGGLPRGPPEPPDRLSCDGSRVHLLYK
T1 sequence (O75899 42-941 partner): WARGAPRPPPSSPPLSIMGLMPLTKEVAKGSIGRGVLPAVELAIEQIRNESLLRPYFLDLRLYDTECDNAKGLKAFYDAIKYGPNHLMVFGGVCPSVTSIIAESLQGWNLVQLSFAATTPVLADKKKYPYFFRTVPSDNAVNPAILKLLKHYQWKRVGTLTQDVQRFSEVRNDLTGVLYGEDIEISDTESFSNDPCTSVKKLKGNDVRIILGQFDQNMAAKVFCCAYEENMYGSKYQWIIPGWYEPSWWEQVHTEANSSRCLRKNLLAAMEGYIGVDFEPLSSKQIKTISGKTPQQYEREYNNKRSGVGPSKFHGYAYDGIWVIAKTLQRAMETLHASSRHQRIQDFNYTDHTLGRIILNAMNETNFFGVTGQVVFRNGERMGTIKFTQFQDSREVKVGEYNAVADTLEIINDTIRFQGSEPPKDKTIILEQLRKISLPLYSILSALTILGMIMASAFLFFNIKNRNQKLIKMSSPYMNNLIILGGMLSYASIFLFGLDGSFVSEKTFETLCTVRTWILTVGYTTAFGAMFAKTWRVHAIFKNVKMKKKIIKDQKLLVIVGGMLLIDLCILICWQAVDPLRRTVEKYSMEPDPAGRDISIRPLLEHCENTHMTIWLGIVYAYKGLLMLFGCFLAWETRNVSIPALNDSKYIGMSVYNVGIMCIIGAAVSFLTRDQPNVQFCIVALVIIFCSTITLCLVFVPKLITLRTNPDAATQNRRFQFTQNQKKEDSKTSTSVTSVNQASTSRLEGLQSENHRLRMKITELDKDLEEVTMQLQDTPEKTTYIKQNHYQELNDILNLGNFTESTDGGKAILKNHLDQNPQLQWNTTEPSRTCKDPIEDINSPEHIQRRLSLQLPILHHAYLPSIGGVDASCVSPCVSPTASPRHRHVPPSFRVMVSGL

Ac-DWGADTVSGDGYDAWDD-NH2 [sc-APP17]
Fig. 2c value, 10mM GABA ([1]; 1 µM peptide with 10mM GABA, replicate 2): 29.41
Fig. 2c value, 10mM GABA ([1]; 1 µM peptide with 10mM GABA, replicate 3): 73.18
Fig. 2c value, 10mM GABA ([1]; 1 µM peptide with 10mM GABA, replicate 4): 69.99
Fig. 2c value, 10mM GABA ([1]; 1 µM peptide with 10mM GABA, replicate 5): 51.73
Fig. 2c value, 10mM GABA ([1]; 1 µM peptide with 10mM GABA, replicate 6): 86.53
Fig. 2c value, Basal ([1]; 1 µM peptide, replicate 1): 88.34
Fig. 2c value, Basal ([1]; 1 µM peptide, replicate 2): 87.73
Fig. 2c value, Basal ([1]; 1 µM peptide, replicate 3): 107.5
Fig. 2c value, Basal ([1]; 1 µM peptide, replicate 4): 102.7
Fig. 2c value, Basal ([1]; 1 µM peptide, replicate 5): 121
Fig. 2c value, Basal ([1]; 1 µM peptide, replicate 6): 65.57
Fig. 2c value, 10mM GABA ([1]; 10 µM peptide with 10mM GABA, replicate 1): 53.02
Fig. 2c value, 10mM GABA ([1]; 10 µM peptide with 10mM GABA, replicate 2): 53.95
Fig. 2c value, 10mM GABA ([1]; 10 µM peptide with 10mM GABA, replicate 3): 60.06
Fig. 2c value, 10mM GABA ([1]; 10 µM peptide with 10mM GABA, replicate 4): 60.44
Fig. 2c value, 10mM GABA ([1]; 10 µM peptide with 10mM GABA, replicate 6): 23.67
Fig. 2c value, Basal ([1]; 10 µM peptide, replicate 1): 90.75
Fig. 2c value, Basal ([1]; 10 µM peptide, replicate 2): 69.76
Fig. 2c value, Basal ([1]; 10 µM peptide, replicate 3): 95.95
Fig. 2c value, Basal ([1]; 10 µM peptide, replicate 4): 91.68
Fig. 2c value, Basal ([1]; 10 µM peptide, replicate 5): 104.2
Fig. 2c value, Basal ([1]; 10 µM peptide, replicate 6): 90.96
FRET in the presence of 10 mM GABA (in words) ([1]; 1 or 10 μM peptide + 10 mM GABA): no significant differences in FRET
FRET, basal, peptide alone (in words) ([1]; 1 or 10 μM peptide without GABA): no significant changes in FRET
intracellular Ca^2+ mobilization (in words) [2]: did not increase intracellular Ca^2+
GABA-induced Kir3 currents in presence of peptide (in words) ([3]; 5 µM GABA): nor did the peptides alter K^+ currents in the presence of 5 µM GABA
Kir3 K^+ currents evoked by compound alone (in words) ([3]; transfected HEK293T cells): did not trigger K^+ currents
GABA-mediated PKA inactivation in presence of peptide (in words) ([4]; 10 μM peptide): GABA-mediated PKA inactivation was comparable
effect of peptide alone on luminescence/receptor activity (in words) ([4]; 10 μM peptide): no agonistic, inverse agonistic, or antagonistic properties
receptor activity with APP695 in cis (in words) ([4]; peptide, APP695 in cis): did not significantly alter GB1/2 receptor activity
baclofen-induced K^+ currents in presence of peptide (in words) ([5]; 5 µM peptide + 5 µM baclofen): elicited currents of similar amplitudes as baclofen alone
K^+ currents evoked by compound alone (in words) [5]: did not elicit any currents
displacement of 1 μM APP17-TMR from GB1a/2 receptors (in words) [6]: not sc-APP17 displaced 1 μM APP17-TMR from GB1a/2 receptors
spontaneous Ca^2+ transients (in words) [7]: no significant effect compared to ACSF

C[C@H](NC[C@H](O)CP(=O)(O)Cc1ccccc1)c1ccc(Cl)c(Cl)c1 [CGP55845]
mEPSC frequency (in words) [8]: reduced the inhibitory effect of APP17 on the mEPSC frequency

NCCCC(=O)O [GABA]
Bottom [9, 12]: 0.9821
HillSlope [9, 12]: 0.6558
Span [9, 12]: 0.4027
Top [9, 12]: 1.385
Basal ([9]; GABA curve fit, vehicle, n=9): 0.99
EMax ([9]; GABA, vehicle, n=9): 1.37
Bottom [9, 13]: 0.9874
HillSlope [9, 13]: 0.6587
Span [9, 13]: 0.3874
Top [9, 13]: 1.375
Bottom [9, 14]: 0.9919
HillSlope [9, 14]: 0.6543
Span [9, 14]: 0.3771
Top [9, 14]: 1.369

NCC(CC(=O)O)c1ccc(Cl)cc1 (centres unmarked) [baclofen]
mEPSC frequency (in words) [10]: significantly reduced mEPSC frequency
K^+ currents evoked by compound alone (in words) [5]: activation of K^+ channels by Gβγ
eEPSC amplitude (in words) [11]: able to reduce the amplitudes of eEPSCs
spontaneous Ca^2+ transients (in words) [7]: reduced spontaneous Ca^2+ transients after 15 min of perfusion
